From patent US20100022541A1, “Chemical inhibitors of bacterial heptose synthesis, methods for their preparation and biological applications of said inhibitors” (priority 2006, published 2010)

Target: T1, RfaE (Escherichia coli, UniProt P76658)
T1 construct: made in house; host or cells: E. coli
Assay: Inhibition of the enzymatic activity of RfaE (HTS luminescent or fluorescent biochemical assay)
Parameters: species or system E. coli
Details: inhibitor tested at 6 to 10 concentrations; 30 min pre-incubation at room temperature
Method: According to another object, the invention also relates to a method for assessing RfaE enzymatic activity. • Said method comprises • pre-incubating at room temperature • DMSO or inhibitor to be tested dissolved in DMSO and RfaE in an assay buffer • and either • adding a reaction mixture composed of RfaE, β-heptose-7-phosphate, ATP, in the assay buffer and incubating at room temperature • adding a revelation mixture composed of luciferase, D-luciferin and N-acetylcysteamine • measuring the luminescence intensity and converting into inhibition % to further calculate the IC50 values; • or • adding a reaction mixture composed of RfaE, β-heptose-7-phosphate ATP, pyruvate kinase, phosphoenolpyruvate, lactate dehydrogenase and NADH in said assay buffer, • measuring the fluorescence intensity of NADH kinetically and deriving inhibition % from fitted initial velocities, to further calculate the IC50 values.
Inhibition of the Enzymatic Activity of RfaE
RfaE is a kinase belonging to the ribokinase family. It catalyses an essential step of the biosynthesis of L-ADP-Heptose, namely the phosphorylation of β-heptose-7-phosphate (H7P) into β-heptose-1,7-bisphosphate (H17P). RfaE assays as described in the literature are essentially based on direct HLPC detection of the substrates H7P and ATP, and of the products H17P and ADP, raising obvious limitations for HTS applications. The assays described below are based either on luminescent ATP detection, or on fluorescent ADP detection. They are easily amenable to miniaturized formats and fast readouts as required by HTS.
The assay buffer “AB” contains 50 mM Hepes pH7.5, 1 mM MnCl2, 25 mM KCl, 0.012% Triton-X100 and 1 mM DTT. The following components are added in a white polystyrene Costar plate up to a final volume of 31 μL: 3 μL DMSO, or inhibitor dissolved in DMSO and 28 μL RfaE in AB. After 30 min of pre-incubation at room temperature, 29 μL of Substrates mix in AB are added in each well to a final volume of 60 μL. This reaction mixture is then composed of 3 nM RfaE (produced in house from E. coli), 0.2 μM β-heptose-7-phosphate (in house synthesis) and 0.2 μM ATP (Sigma) in assay buffer. After 40 min of incubation at room temperature, 200 μL of the revelation mix are added to a final volume of 260 μL, including the following constituents at the respective final concentrations: 2 nM luciferase (Sigma), 30 μM D-luciferin (Sigma), 100 μM N-acetylcysteamine (Aldrich). Luminescence intensity is immediately measured on an Analyst-HT (Molecular Devices) and converted into inhibition percentages. For IC50 determinations, the inhibitor is tested at 6 to 10 different concentrations, and the related inhibitions are fitted to a classical langmuir equilibrium model using XLFIT (IDBS).
The assay buffer “AB” contains 50 mM Hepes pH7.5, 1 mM MnCl2, 25 mM KCl, 0.012% Triton-X100 and 1 mM DTT. The following components are added in a black polystyrene Costar plate up to a final volume of 50 μL: 5 μL DMSO, or inhibitor dissolved in DMSO and 45 μL RfaE in AB. After 30 min of pre-incubation at room temperature, 50 μL of Substrates-revelation mix in AB are added in each well to a final volume of 100 μL. This reaction mixture is then composed of 66 μM RfaE (produced in house from E. coli), 1 μM β-heptose-7-phosphate (in house synthesis), 50 μM ATP (Sigma), 5 u/mL Pyruvate Kinase (Sigma), 50 μM phosphoenolpyruvate (Sigma), 5 u/mL Lactate dehydrogenase (Sigma) and 2.5 μM NADH (Sigma) in assay buffer. Fluorescence intensity of NADH (λex=360 nm, λem=520 nm) is immediately measured kinetically by a Fluostar Optima (BMG). Inhibition percentages are derived from fitted initial velocities. For IC50 determinations, the inhibitor is tested at 6 to 10 different concentrations, and the related inhibitions are fitted to a classical langmuir equilibrium model using XLFIT (IDBS).

T1 sequence (P76658 whole entry): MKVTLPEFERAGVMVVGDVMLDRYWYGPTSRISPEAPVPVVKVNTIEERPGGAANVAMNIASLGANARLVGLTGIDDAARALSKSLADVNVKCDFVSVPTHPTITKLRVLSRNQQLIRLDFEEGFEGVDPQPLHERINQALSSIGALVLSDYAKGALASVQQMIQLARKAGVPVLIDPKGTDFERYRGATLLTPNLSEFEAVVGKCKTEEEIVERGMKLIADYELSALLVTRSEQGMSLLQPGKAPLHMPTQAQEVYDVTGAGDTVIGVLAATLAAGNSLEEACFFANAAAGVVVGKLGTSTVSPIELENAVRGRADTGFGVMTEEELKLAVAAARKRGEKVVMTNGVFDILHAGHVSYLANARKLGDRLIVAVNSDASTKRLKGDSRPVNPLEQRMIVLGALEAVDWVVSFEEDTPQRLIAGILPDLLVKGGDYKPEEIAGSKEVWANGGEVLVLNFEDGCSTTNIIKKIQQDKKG

| Structure (SMILES) | IC50 [µM] |
| --- | --- |
| Cc1oc(-c2ccccc2)cc1C(=O)N(CC(=O)O)Cc1ccccn1 [Example X, [(2-methyl-5-phenyl-3-furoyl)(pyridin-2-ylmethyl)amino]acetic Acid] | 42 |
| O=C(O)CN(Cc1ccccn1)C(=O)c1ccc(-c2ccccc2)o1 [VII, [(5-phenyl-2-furoyl)(pyridin-2-ylmethyl)amino]acetic Acid] | 100 |
| Cc1nc(-c2ccccc2)sc1C(=O)N(CC(=O)O)Cc1ccccn1 [IX, [[(4-methyl-2-phenyl-1,3-thiazol-5-yl)carbonyl](pyridin-2-ylmethyl)amino]acetic Acid] | 52 |
| O=C(O)CN(Cc1ccccn1)C(=O)c1nc(-c2ccccc2)oc1C(F)(F)F [XIII, [{[2-phenyl-5-(trifluoromethyl)-1,3-oxazol-4-yl]carbonyl}(pyridin-2-ylmethyl)amino]acetic Acid] | 80 |
| COc1cccc(-c2nc(C(=O)N(CC(=O)O)Cc3ccccn3)c(C)o2)c1 [Example XX, [{[2-(3-methoxyphenyl)-5-methyl-1,3-oxazol-4-yl]carbonyl}(pyridin-2-ylmethyl)amino]acetic Acid] | 15 |
| Cc1oc(-c2cccc(NC(=O)C3CC3)c2)nc1C(=O)N(CC(=O)O)Cc1ccccn1 [XXVIII, {[(2-{3-[(cyclopropylcarbonyl)amino]phenyl}-5-methyl-1,3-oxazol-4-yl)carbonyl](pyridin-2-ylmethyl)amino}acetic Acid] | 14 |
| Cc1oc(-c2ccccc2)nc1C(=O)N(CC(=O)O)Cc1nccs1 [XXXIII, [[(5-methyl-2-phenyl-1,3-oxazol-4-yl)carbonyl](1,3-thiazol-2-ylmethyl)amino]acetic Acid] | 110 |
| O=C(O)CN(Cc1ccccn1)C(=O)c1nc(-c2ccccc2)oc1CN1CCOCC1 [II, [{[5-(morpholin-4-ylmethyl)-2-phenyl-1,3-oxazol-4-yl]carbonyl}(pyridin-2-ylmethyl)amino]acetic Acid] | 197 |
| Cc1oc(-c2ccccc2)nc1C(=O)N(CC(=O)O)Cc1ccccn1 [XII, [[(5-methyl-2-phenyl-1,3-oxazol-4-yl)carbonyl](pyridin-2-ylmethyl)amino]acetic Acid] | 51 |
| Cc1oc(-c2cccc(O)c2)nc1C(=O)N(CC(=O)O)Cc1ccccn1 [XXV, [{[2-(3-hydroxyphenyl)-5-methyl-1,3-oxazol-4-yl]carbonyl}(pyridin-2-ylmethyl)amino]acetic Acid] | 50 |
| Cc1cccc(C)c1-c1nc(C)c(C(=O)N(CC(=O)O)Cc2nc3ccccc3s2)s1 [XL, ((1,3-benzothiazol-2-ylmethyl){[4-methyl-2-(2,6-dimethylphenyl)-1,3-thiazol-5-yl]carbonyl}amino)acetic Acid] | 50.5 |
| COc1cccc(-c2nc(C)c(C(=O)N(CC(=O)O)Cc3ccccn3)o2)c1 [III, [{[2-(3-methoxyphenyl)-4-methyl-1,3-oxazol-5-yl]carbonyl}(pyridin-2-ylmethyl)amino]acetic Acid] | 17 |
| Cc1nc(-c2ccccc2)oc1C(=O)N(CC(=O)O)Cc1ccc(-c2ccccc2F)o1 [XXXII, ([(4-methyl-2-phenyl-1,3-oxazol-5-yl)carbonyl]{[5-(2-fluorophenyl)-2-furyl]methyl}amino)acetic Acid] | 125 |
| Cc1nc(-c2ccc3ccccc3c2)sc1C(=O)N(CC(=O)O)Cc1nc2ccccc2s1 [XLI, ((1,3-benzothiazol-2-ylmethyl){[4-methyl-2-(2-naphthyl)-1,3-thiazol-5-yl]carbonyl}amino)acetic Acid] | 0.48 |
| COc1cccc(-c2nc(C)c(C(=O)N(CC(=O)O)Cc3nc4cc(OC)ccc4s3)o2)c1 [XXX, ((5-methoxy-1,3-benzothiazol-2-ylmethyl){[2-(3-methoxyphenyl)-4-methyl-1,3-oxazol-5-yl]carbonyl}amino)acetic Acid] | 1.09 |
| Cc1oc(-c2ccc(N)cc2)nc1C(=O)N(CC(=O)O)Cc1ccccn1 [XXVII, [{[2-(4-aminophenyl)-5-methyl-1,3-oxazol-4-yl]carbonyl}(pyridin-2-ylmethyl)amino]acetic Acid] | 22 |
